Reference: US7632812B2, “Methods to stimulate insulin production by pancreatic β-cells” (Massachusetts General Hospital, priority 1999, dated 2009)

Legend:
INS-1 cells [1] = assay: Cellular insulin content of INS-1 cells (Rat Insulin RIA of lysate); type: cell-based; details: untransfected INS-1 cells, 20 μM, 24 hours; FIG. 16
Method: (§1) This potential role was examined with the rat INS-1 cell line, which intrinsically expresses Ihh and Dhh proteins (FIGS. 13 and 14). […] Insulin levels were measured with a Rat Insulin RIA Kit (LINCO Research, Inc., St. Louis, Mo.) using the protocol outlined by the manufacturer. […] After 24 hours of incubation, 500 μL aliquots of culture medium were removed and serially diluted for the assay. Culture medium that was not exposed to cells was tested as a negative control for the assay. In some experiments, transfected cells were assessed for insulin secretion rates. In these experiments, after incubation with lipofectamine and DNA, the transfected cells received fresh culture medium and 24-hour insulin secretion rates were assessed. Given that the cells intrinsically express hedgehog, the cells were also treated with cyclopamine in the absence of any transfection. […] Cells were then rinsed in phosphate buffered saline and lysed in 0.1N HCl in 100% ethanol at 4° C. The lysate was incubated overnight at−70° C. The thawed lysate was vortexed and subjected to brief centrifugation at 14,000 rpm. The resulting supernatant was dried under vacuum, resuspended in […] Assay buffer, and serially diluted for insulin measurements with the Rat Insulin RIA Kit.

INS-1 cells [2] = assay: Insulin secretion by INS-1 cells into medium over 24 h (Rat Insulin RIA); type: cell-based; details: INS-1 cells transfected with pEV control and insulin promoter-reporter construct; 24 h exposure; increasing amounts; FIG. 15
Method: as §1

[3] = system: insulin mRNA in INS-1 cells; assay: Northern blot of insulin mRNA levels in INS-1 cells; type: cell-based, rat; details: 20 μM, Northern RNA blots, FIG. 17
Method: For isolation of total RNA, cells were washed in phosphate buffered saline and lysed with Tri-Reagent (SIGMA, St-Louis, Mo.). Total cellular RNA was prepared according to the manufacturer's protocol. For each sample, 4 μg total RNA was separated by electrophoresis on a denaturing gel consisting of 1× MOPS, 1.2% agarose and 1% formaldehyde. Samples were transferred using standard methods (Ausubel et al., Short Protocols in Molecular Biology, Third Edition, John Wiley and Sons, Inc., 1995.) to nylon membranes (Hybond-N+, Amersham Pharmacia Biotech, Inc., Piscataway, N.J.) and crosslinked with ultraviolet light (UV Stratalinker 1800, Stratagene, La Jolla, Calif.). The membranes were prehybridized in Rapid-Hyb Buffer (Amersham Pharmacia Biotech, Inc.) prior to hybridization for 4 hours at 65° C. with radiolabeled probes. Insulin transcripts were probed with a 231 nucleotide fragment (spanning nucleotides 349 to 580 of the rat insulin I gene, Genbank acc. no. V01242) of rat insulin I cDNA. […] For quantitation, autoradiograms were scanned with a Computing Densitometer (Molecular Dynamics, Sunnyvale, Calif.) and individual band intensities were determined with ImageQuant software (Molecular Dynamics, Sunnyvale, Calif.). […]

rat insulin I promoter = assay: Rat insulin I promoter luciferase reporter (-410 INS-luc) in transfected INS-1 cells; type: cell-based; details: absence of the Shh expression construct, dose-dependent, FIG. 19
Method: To determine whether hedgehog regulation of insulin production occurs at the transcriptional level, INS-1 cells were transiently transfected with 5-6 μg total DNA and 10 μL Lipofectamine according to the manufacturer's instructions (GIBCO BRL Life Technologies, Inc., Gaithersburg, Md.) with increasing concentrations of Shh expression vector pSHH in the presence of a rat insulin I promoter-reporter construct −410 INS-luc. […] The plasmid −410 INS-LUC consists of a fragment of the rat insulin I gene promoter that spans nucleotides −410 to +49 inserted into the pXP2 vector that includes firefly luciferase reporter sequences (Lu, M., et al, 1997, J. Biol. Chem.: 272:28349). […] For luciferase assays, cells were harvested 24 hours after transfection with 1× Reporter Lysis Buffer (Promega, Madison, Wis.). Luciferase assays were conducted with the Luciferase Assay System as outlined by the manufacturer (Promega, Madison, Wis.). Luciferase activities were normalized for extract protein concentrations as determined by the Bio-Rad Protein Assay (Bio-Rad Laboratories, Hercules, Calif.), a modified Bradford assay (Bradford, M., 1976, Anal. Biochem., 72:248).

SMILES: CC1=C2C[C@H]3[C@@H](CC=C4C[C@@H](O)CC[C@@]43C)[C@@H]2CC[C@]12O[C@@H]1C[C@H](C)CN[C@H]1[C@H]2C [cyclopamine]
- reduction in cellular insulin content (INS-1 cells [1]): 40%
- effect on insulin secretion (INS-1 cells [2]): increasingly inhibited insulin secretion
- levels of insulin mRNA [3]: decrease in the levels of insulin mRNA
- inhibition of basal insulin promoter activity (rat insulin I promoter): up to 90%
